According to patent US11242337B2, “Compounds useful for treating gastrointestinal tract disorders” (Ardelyx, Inc., priority 2017, dated 2022):

Columns and labels:
[1] = tested on: human ileum monolayer culture; test: Sustained inhibition of apical acid secretion in human organoid monolayer cell cultures (ileum); format: cell-based; conditions: Homo sapiens, 48 h; 1 μM apical, dosed day 6, apical media pH day 8, vs DMSO
Protocol: (§1) Basal media (BM) consisted of advanced DMEM/F12 containing 10 mM HEPES Invitrogen, 15630-080), 1:100 Glutamax (Invitrogen, 35050-061), and 1:100 penicillin/streptomycin (Invitrogen, 15140-122). Supplemented basal media (SBM) contained 1:100 N2 (Invitrogen, 17502-048), 1:50 B27 (Invitrogen, 12587-010), 1 mM N-acetylcysteine (Sigma, A9165), and 10 nM [Leu15]-gastrin I (Sigma, G9145). Growth factors used included 50 ng per mL mouse EGF (Peprotech, 315-09), 100 ng per mL mouse noggin (Peprotech, 250-38), 500 ng per mL human R-spondin 1 (R&D, 4645-RS), 100 ng per mL mouse Wnt-3a (R&D, 1324-WN), 20 μM. Y-27632 (Tocris, 1254), 10 mM nicotinamide (Sigma, N0636), 500 nM A83-01 (Tocris, 2939), 10 μM SB202190 (Tocris, 1264). Transwells were 0.4 μm pore polyester membrane 24-well Transwell inserts (Corning). Cultures were incubated at 37° C. in 5% CO2.
(§2) Human ileum organoids were cultured in WENRNAS (Wnt, EGF, noggin, R-spondin1, Nicotinamide, A83-01, SB202190) and typically grown for 7-12 days before being used to plate monolayer cultures. On day 0, organoid cultures embedded in Matrigel were treated with TrypLE Express to break organoids into small pieces and/or single cells. The cells were resuspended to 0.5×10^6 cells/mL in SBM containing WENRAY (Wnt, EGF, noggin, R-spondin1, A83-01, Y-27632). Following this step, 200 μL of cell suspension was plated into the apical side of a 24-well Transwell (100,000 cells/well) and 600 μL of SBM with WENRAY was added to the basolateral side. Ileum cells were differentiated with ENRA (EGF, noggin, R-spondin 1, A83-01) on day 3. The color of apical compartment turns from pink or orange to yellow due to the increase in NHE3 expression after differentiation.
(§3) Each human ileum monolayer culture well was washed twice with fresh SBM on the apical side on day 6 before compound dosing. All compound stocks were 10 mM dissolved in DMSO. Each compound stock was individually mixed with fresh SBM to reach final compound concentration 1 μM and dosed only on the apical side of the monolayer (total volume 200 μl). DMSO at the equivalent concentration was used as the vehicle control. Duplicate wells were dosed for each compound. On day 8, apical media pH was measured by pH electrode, to determine the ability of example compounds to produce sustained inhibition of NHE3 activity in a human monolayer culture system by preventing proton secretion into the apical compartment.

[2] = tested on: human duodenum monolayer culture; test: Sustained inhibition of apical acid secretion in human organoid monolayer cell cultures (duodenum); format: cell-based; conditions: Homo sapiens
Protocol: as §1, §3
as §2, with “Human duodenum” for “Human ileum”, “side. Duodenum” for “side. Ileum”, “with ENA” for “with ENRA”, “noggin,” for “noggin, R-spondin 1,”

Question: Which inhibition at 1 µM [1] does the source give for Cc1cc(S(=O)(=O)NCCOCCOCCNC(=O)NCCCCNC(=O)NCCOCCOCCNS(=O)(=O)c2ccc(O[C@H]3c4cc(Cl)cc(C#N)c4C[C@@H]3N3CCNCC3)c(C)c2)ccc1O[C@H]1c2cc(Cl)cc(C#N)c2C[C@@H]1N1CCNCC1 [Example 42, 3-[2-(2-[2-[(4-[[(1S,2S)-6-Chloro-4-cyano-2-(piperazin-1-yl)-2,3-dihydro-1H-inden-1-yl]oxy]-3-methylbenzene)sulfonamido]ethoxy]ethoxy)ethyl]-1-[4-([[2-(2-[2-[(4-[[(1S,2S)-6-chloro-4-cyano-2-(piperazin-1-yl)-2,3-dihydro-1H-inden-1-yl]oxy]-3-methylbenzene)sulfonamido]ethoxy]ethoxy)ethyl]carbamoyl]amino)butyl]urea; bis(trifluoroacetic acid)] here?
Answer: Its inhibition at 1 µM is over 70%.

Question: And the inhibition at 1 µM [2]?
Answer: Its inhibition at 1 µM is over 70%.

Question: For N#Cc1cc(Cl)cc2c1C[C@H](N1CCNCC1)[C@H]2Oc1ccc(S(=O)(=O)NCCOCCOCCNC(=O)NCCCCNC(=O)NCCOCCOCCNS(=O)(=O)c2ccc(O[C@H]3c4cc(Cl)cc(C#N)c4C[C@@H]3N3CCNCC3)c(F)c2)cc1F [Example 43, 3-[2-(2-[2-[(4-[[(1S,2S)-6-Chloro-4-cyano-2-(piperazin-1-yl)-2,3-dihydro-1H-inden-1-yl]oxy]-3-fluorobenzene)sulfonamido]ethoxy]ethoxy)ethyl]-1-[4-([[2-(2-[2-[(4-[[(1S,2S)-6-chloro-4-cyano-2-(piperazin-1-yl)-2,3-dihydro-1H-inden-1-yl]oxy]-3-fluorobenzene)sulfonamido]ethoxy]ethoxy)ethyl]carbamoyl]amino)butyl]urea; bis(trifluoroacetic acid)], which inhibition at 1 µM [1] is on record?
Answer: Its inhibition at 1 µM is 50 to 70%.

Question: What about the inhibition at 1 µM [2] of the same molecule?
Answer: The inhibition at 1 µM was over 70%.

Question: How did the inhibition at 1 µM [1] turn out when Cc1cc(S(=O)(=O)N2CC[C@@H](COCCOCCNC(=O)NCCCCNC(=O)NCCOCCOC[C@@H]3CCN(S(=O)(=O)c4ccc(O[C@H]5c6cc(Cl)cc(Cl)c6C[C@@H]5N(C)C)c(C)c4)C3)C2)ccc1O[C@H]1c2cc(Cl)cc(Cl)c2C[C@@H]1N(C)C [Example 45, 3-[2-(2-[[(3R)-1-[(4-[[(1S,2S)-4,6-Dichloro-2-(dimethylamino)-2,3-dihydro-1H-inden-1-yl]oxy]-3-methylbenzene)sulfonyl]pyrrolidin-3-yl]methoxy]ethoxy)ethyl]-1-[4-([[2-(2[[(3R)-1-[(4-[[(1S,2S)-4,6-dichloro-2-(dimethylamino)-2,3-dihydro-1H-inden-1-yl]oxy]-3-methylbenzene)sulfonyl]pyrrolidin-3-yl]methoxy]ethoxy)ethyl]carbamoyl]amino)butyl]urea; bis(trifluoroacetic acid)] was run?
Answer: Its inhibition at 1 µM is 50 to 70%.

Question: And the inhibition at 1 µM [2]?
Answer: The inhibition at 1 µM was over 70%.

Question: Which results are given for Cc1cc(S(=O)(=O)N2CC[C@@H](COc3ccnc(CNC(=O)NCCCCNC(=O)NCc4cc(OC[C@@H]5CCN(S(=O)(=O)c6ccc(O[C@H]7c8cc(Cl)cc(Cl)c8C[C@@H]7N(C)C)c(C)c6)C5)ccn4)c3)C2)ccc1O[C@H]1c2cc(Cl)cc(Cl)c2C[C@@H]1N(C)C [Example 49, 3-[(4-[[(3R)-1-[(4-[[(1S,2S)-4,6-Dichloro-2-(dimethylamino)-2,3-dihydro-1H-inden-1-yl]oxy]-3-methylbenzene)sulfonyl]pyrrolidin-3-yl]methoxy]pyridin-2-yl)methyl]-1-[4-([[(4-[[(3R)-1-[(4-[[(1S,2S)-4,6-dichloro-2-(dimethylamino)-2,3-dihydro-1H-inden-1-yl]oxy]-3-methylbenzene)sulfonyl]pyrrolidin-3-yl]methoxy]pyridin-2-yl)methyl]carbamoyl]amino)butyl]urea]?
Answer: inhibition at 1 µM [1]: > 70%; inhibition at 1 µM [2]: > 70%

Question: How did the inhibition at 1 µM [1] turn out when Cc1cc(S(=O)(=O)N[C@H]2CCN(CCOCCNC(=O)NCCCCNC(=O)NCCOCCN3CC[C@H](NS(=O)(=O)c4ccc(O[C@H]5c6cc(Cl)cc(Cl)c6C[C@@H]5N(C)C)c(C)c4)C3)C2)ccc1O[C@H]1c2cc(Cl)cc(Cl)c2C[C@@H]1N(C)C [Example 52, 3-(2-[2-[(3S)-3-[(4-[[(1S,2S)-4,6-Dichloro-2-(dimethylamino)-2,3-dihydro-1H-inden-1-yl]oxy]-3-methylbenzene)sulfonamido]pyrrolidin-1-yl]ethoxy]ethyl)-1-(4-[[(2-[2-[(3S)-3-[(4-[[(1S,2S)-4,6-dichloro-2-(dimethylamino)-2,3-dihydro-1H-inden-1-yl]oxy]-3-methylbenzene)sulfonamido]pyrrolidin-1-yl]ethoxy]ethyl)carbamoyl]amino]butyl)urea] was run?
Answer: The inhibition at 1 µM was over 70%.

Question: And the inhibition at 1 µM [2]?
Answer: The inhibition at 1 µM was over 70%.

Question: Which inhibition at 1 µM [1] does the source give for Cc1cc(S(=O)(=O)N[C@@H]2CCN(CCOCCNC(=O)NCCCCNC(=O)NCCOCCN3CC[C@@H](NS(=O)(=O)c4ccc(O[C@H]5c6cc(Cl)cc(C#N)c6C[C@@H]5N(C)C)c(C)c4)C3)C2)ccc1O[C@H]1c2cc(Cl)cc(C#N)c2C[C@@H]1N(C)C [Example 55, 3-(2-[2-[(3R)-3-[(4-[[(1S,2S)-6-Chloro-4-cyano-2-(dimethylamino)-2,3-dihydro-1H-inden-1-yl]oxy]-3-methylbenzene)sulfonamido]pyrrolidin-1-yl]ethoxy]ethyl)-1-(4-[[(2-[2-[(3R)-3-[(4-[[(1S,2S)-6-chloro-4-cyano-2-(dimethylamino)-2,3-dihydro-1H-inden-1-yl]oxy]-3-methylbenzene)sulfonamido]pyrrolidin-1-yl]ethoxy]ethyl)carbamoyl]amino]butyl)urea] here?
Answer: Its inhibition at 1 µM is under 50%.

Question: What about the inhibition at 1 µM [2] of the same molecule?
Answer: Its inhibition at 1 µM is 50 to 70%.

Question: How did the inhibition at 1 µM [1] turn out when Cc1cc(S(=O)(=O)N[C@H]2CCN(CCOCCNC(=O)NCCCCNC(=O)NCCOCCN3CC[C@H](NS(=O)(=O)c4ccc(O[C@H]5c6cc(Cl)cc(Cl)c6C[C@@H]5N(C)C)c(C)c4)C3=O)C2=O)ccc1O[C@H]1c2cc(Cl)cc(Cl)c2C[C@@H]1N(C)C [Example 91, 1-(2-[2-[(3S)-3-[(4-[[(1S,2S)-4,6-Dichloro-2-(dimethylamino)-2,3-dihydro-1H-inden-1-yl]oxy]-3-methylbenzene)sulfonamido]-2-oxopyrrolidin-1-yl]ethoxy]ethyl)-3-(4-[[(2-[2-[(3S)-3-[(4-[[(1S,2S)-4,6-dichloro-2-(dimethylamino)-2,3-dihydro-1H-inden-1-yl]oxy]-3-methylbenzene)sulfonamido]-2-oxopyrrolidin-1-yl]ethoxy]ethyl)carbamoyl]amino]butyl)urea] was run?
Answer: Its inhibition at 1 µM is 50 to 70%.

Question: What about the inhibition at 1 µM [2] of the same molecule?
Answer: Its inhibition at 1 µM is over 70%.

Question: Which results are given for O=C(NCCCCNC(=O)NCCOCCN1CC[C@@H](NS(=O)(=O)c2ccc(O[C@H]3c4cc(Cl)cc(Cl)c4C[C@@H]3N3CCNCC3)c(F)c2)C1)NCCOCCN1CC[C@@H](NS(=O)(=O)c2ccc(O[C@H]3c4cc(Cl)cc(Cl)c4C[C@@H]3N3CCNCC3)c(F)c2)C1 [Example 105, 4-([(1S,2S)-4,6-Dichloro-2-(piperazin-1-yl)-2,3-dihydro-1H-inden-1-yl]oxy)-N—[(R)-1-(20-[(R)-3-([4-([(1S2S)-4,6-dichloro-2-(piperazin-1-yl)-2,3-dihydro-1H-inden-1-yl]oxy)-3-fluorophenyl]sulfonamido)pyrrolidin-1-yl]-7,14-dioxo-3,18-dioxa-6,8,13,15-tetraazaicosyl)pyrrolidin-3-yl]-3-fluorobenzenesulfonamide; tetra(trifluoroacetate)]?
Answer: inhibition at 1 µM [1]: > 70%; inhibition at 1 µM [2]: > 70%

Question: For O=C(NCCCCNC(=O)NCCOCCN1CC[C@H](NS(=O)(=O)c2ccc(O[C@H]3c4cc(Cl)cc(Cl)c4C[C@@H]3N3CCNCC3)c(F)c2)C1)NCCOCCN1CC[C@H](NS(=O)(=O)c2ccc(O[C@H]3c4cc(Cl)cc(Cl)c4C[C@@H]3N3CCNCC3)c(F)c2)C1 [Example 106, 4-([(1S,2S)-4,6-Dichloro-2-(piperazin-1-yl)-2,3-dihydro-1H-inden-1-yl]oxy)-N—[(S)-1-(20-[(S)-3-([4-([(1S,2S)-4,6-dichloro-2-(piperazin-1-yl)-2,3-dihydro-1H-inden-1-yl]oxy)-3-fluorophenyl]sulfonamido)pyrrolidin-1-yl]-7,14-dioxo-3,18-dioxa-6,8,13,15-tetraazaicosyl)pyrrolidin-3-yl]-3-fluorobenzenesulfonamide; tetra(trifluoroacetate)], which inhibition at 1 µM [1] is on record?
Answer: Its inhibition at 1 µM is over 70%.

Question: What about the inhibition at 1 µM [2] of the same molecule?
Answer: Its inhibition at 1 µM is over 70%.
